The source of these data is patent US20260115144A1, “THERAPEUTIC NANOPARTICLES ENCAPSULATING TERPENOIDS AND/OR CANNABINOIDS” (priority 2018, published 2026).

The target of one series is T1, TRPV1 receptors (Rattus norvegicus, UniProt O35433).
T1 construct: expressed in transfected cells; host or cells: HEK TRPV1 cells (Helen Turner lab, Chaminade University of Honolulu), kept under geneticin
As to the kind of experiment: Calcium signaling assay (Fluo-4) in HEK TRPV1 cells. The following applies: 40 μg/ml, 1 h. Format: cell-based.

A further series concerns the target TRPV1 (Homo sapiens, UniProt Q8NER1). The following applies: described in PCT/US2018/033956; cited from earlier work.
For series [1] the following is noted: cited from earlier work.
Series [2] is described as follows: Loss of myrcene during lyophilization for 24 h (weighing). Format: physicochemical. The following applies: lyophilized for 24 h; starting weight 8 or 48 mg. The method, then: To investigate whether myrcene is lost during lyophilization, 3 samples of either free myrcene, a mixture of myrcene and water, or a mixture of myrcene, water and PLGA were prepared in duplicate as illustrated in Table 16. Samples were lyophilized for 24 h. The vials containing the samples were weighed before and after lyophilization to calculate the weight of the dried sample.

T1 sequence (O35433 whole entry): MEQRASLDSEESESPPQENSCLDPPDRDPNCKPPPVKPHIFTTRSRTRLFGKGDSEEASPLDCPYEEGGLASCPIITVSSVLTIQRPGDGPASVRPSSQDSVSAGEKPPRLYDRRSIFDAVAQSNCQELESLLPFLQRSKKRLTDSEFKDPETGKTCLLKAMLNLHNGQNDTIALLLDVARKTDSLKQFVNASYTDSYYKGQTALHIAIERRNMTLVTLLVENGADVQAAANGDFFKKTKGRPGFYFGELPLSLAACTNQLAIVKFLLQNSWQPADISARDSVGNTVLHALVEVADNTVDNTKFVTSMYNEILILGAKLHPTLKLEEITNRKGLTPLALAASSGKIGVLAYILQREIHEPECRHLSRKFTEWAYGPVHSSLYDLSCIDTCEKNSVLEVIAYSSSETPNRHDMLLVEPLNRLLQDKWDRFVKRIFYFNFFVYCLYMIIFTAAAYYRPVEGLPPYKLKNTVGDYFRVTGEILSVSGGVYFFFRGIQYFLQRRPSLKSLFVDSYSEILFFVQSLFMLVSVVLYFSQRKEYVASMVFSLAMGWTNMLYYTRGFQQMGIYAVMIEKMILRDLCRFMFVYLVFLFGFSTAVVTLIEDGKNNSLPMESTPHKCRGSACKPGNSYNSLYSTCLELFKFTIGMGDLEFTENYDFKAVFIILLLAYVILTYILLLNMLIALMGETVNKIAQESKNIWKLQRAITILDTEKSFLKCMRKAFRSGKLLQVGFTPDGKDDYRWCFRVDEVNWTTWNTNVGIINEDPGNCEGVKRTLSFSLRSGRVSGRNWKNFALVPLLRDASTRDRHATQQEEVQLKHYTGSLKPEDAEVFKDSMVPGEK
Chain of TRPV1 (Q8NER1 whole entry, species assumed): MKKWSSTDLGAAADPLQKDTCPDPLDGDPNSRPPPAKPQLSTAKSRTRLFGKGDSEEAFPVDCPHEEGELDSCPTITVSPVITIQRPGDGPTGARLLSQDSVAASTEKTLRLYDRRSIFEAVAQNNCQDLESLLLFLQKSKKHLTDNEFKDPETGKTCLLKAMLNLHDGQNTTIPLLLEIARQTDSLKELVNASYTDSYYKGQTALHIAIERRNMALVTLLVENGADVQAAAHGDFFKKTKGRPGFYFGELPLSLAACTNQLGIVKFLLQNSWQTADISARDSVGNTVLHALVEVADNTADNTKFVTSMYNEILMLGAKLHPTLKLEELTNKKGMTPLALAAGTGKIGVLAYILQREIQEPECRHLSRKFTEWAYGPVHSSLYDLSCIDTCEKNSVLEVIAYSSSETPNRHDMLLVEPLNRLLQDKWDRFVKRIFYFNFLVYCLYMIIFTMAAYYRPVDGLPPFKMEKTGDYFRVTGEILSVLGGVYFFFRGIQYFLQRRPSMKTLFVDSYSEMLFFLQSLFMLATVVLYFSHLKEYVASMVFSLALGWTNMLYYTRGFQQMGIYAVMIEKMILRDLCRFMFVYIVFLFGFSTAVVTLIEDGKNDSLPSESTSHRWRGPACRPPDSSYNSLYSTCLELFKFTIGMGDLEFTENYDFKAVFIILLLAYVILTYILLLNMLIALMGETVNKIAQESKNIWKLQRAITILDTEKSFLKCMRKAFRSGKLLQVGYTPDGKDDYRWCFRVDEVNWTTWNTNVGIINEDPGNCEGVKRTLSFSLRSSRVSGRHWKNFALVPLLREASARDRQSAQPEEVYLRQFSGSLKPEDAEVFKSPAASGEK
Experimental for TRPV1 receptors: HEK TRPV1 cells were provided by the Helen Turner lab at Chaminade University of Honolulu and maintained in MEM essential medium supplemented with 10% FBS, 50 units/ml-50 μg/ml Penicillin-Streptomycin, and 0.6 mg/ml geneticin.
HEK TRPV1 cells were harvested with trypsin, deactivated with media, and counted. Cells were centrifuged at 1000 rpm, for 5 min, at room temperature. Cells were washed twice with 1 mM Ca Assay Buffer (Na Ringers [140 mM NaCl, 2.8 mM KCl, 2 mM MgCl2, 11 mM glucose, 10 mM HEPES], 2 mM Probenecid, 1 mM CaCl2); pH 7.4), and collected by centrifugation at 1000 rpm, for 5 min, at room temperature. Cells were resuspended in 1 μM Fluo-4 (1 μl of 5 mM Fluo-4, mixed with 1 μl of 20% Pluronic F-127 in DMSO, then 5 ml of 1 mM Ca Assay Buffer was added and the mixture incubated at 37° C. for 10 min in the dark), and incubated for 30 min at 37° C. in the dark. Cells were then washed twice with 1 mM Ca assay buffer, then resuspended in the assay buffer and pipetted to opaque-walled 96-well plates at a density of 150,000 cells/180 μl/well. Fluorescence was measured using a plate reader (Synergy HTX, BioTek, USA), at an excitation wavelength of 485 nm and an emission wavelength of 528 nm. Once a baseline was established (3 measurements), 20 μl of the stimulant (free terpenoids, terpenoids-loaded NPs, and controls) solution was added to each well and measurement was continued for 1 h with one read every 40 seconds.
All solutions were prepared in 1 mM Ca Assay Buffer. Free terpenoids were first dissolved in DMSO, then a specific volume was diluted with the assay buffer to produce the required concentration. […]
A calcium signaling assay was utilized to evaluate the ion influx into HEK TRPV1 cells. Cells were dispersed in 1 mM calcium assay buffer and the intracellular calcium levels were measured using a plate reader in the presence of Fluo-4, as the fluorophore. […] Fluorescence changes in response to the free terpenoids, encapsulated terpenoids, and combinations of free and encapsulated terpenoids were detected and compared.

On to `C=CC(=C)CCC=C(C)C` [myrcene, 7-methyl-3-methylideneocta-1,6-diene], for which the “Calcium response (fluorescence change), non-encapsulated individual terpenoids” value at TRPV1 receptors is “most intense response”. Moreover, on TRPV1, the TRPV1 agonist activity result is “TRPV1 agonist that causes TRPV1 desensitization after prolonged exposure”. Moreover, the Vapor pressure in series [1] (at 25° C.) is recorded as 2.09 mm Hg. Also, the Solubility in water result in series [1] is given as “not soluble in water”.

Consider `C=C1CC/C=C(\C)CC[C@@H]2[C@@H]1CC2(C)C` [β-caryophyllene, (1R,4E,9S)-4,11,11-Trimethyl-8-methylidenebicyclo[7.2.0]undec-4-ene], for which, at TRPV1 receptors, the “Calcium response (fluorescence change), non-encapsulated individual terpenoids” value is recorded as “lowest calcium responses”.

On to `C=CC(=C)CCC=C(C)C` [Formula F42], for which the Weight after lyophilization in series [2] is listed as 0.88 mg.

Turning to `C=CC(C)(O)CCC=C(C)CCC=C(C)C` (stereo not shown) [nerolidol, 3,7,11-Trimethyl-1,6,10-dodecatrien-3-ol], the “Calcium response (fluorescence change), non-encapsulated individual terpenoids” value on TRPV1 receptors was “induced a calcium response”.
